# Data as given in patent US7084176B2, “N-arylphenylacetamide derivatives and medicinal compositions containing the same” (Dainippon Pharmaceutical Co., Ltd., priority 2001, dated 2006).
# What was measured:
# male Std:ddY mice = test: Phenyl-1,4-benzoquinone-induced writhing test; assay type: in vivo; details: for inhibition in vivo at 10 mg/kg / ED50: Mus musculus, po; for inhibition in vivo at 10 mg/kg: 1 h, read-out: Inhibitory percentage (%); for ED50: read-out: ED50 (mg/kg po)
# Outline: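 Compounds were given orally suspended in 0.5% tragacanth; subcutaneous controls got saline with 10% Tween 80 and 10% ethanol. Writhing counts after phenyl-1,4-benzoquinone were compared with vehicle controls as % inhibition [(A−B)/A]×100. ED50 (mg/kg) was derived by logit analysis.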
# Jcl:SD strain male rats = test: Study of pungency (eye wiping test); assay type: in vivo; details: a drop into the eye of rats, counted for 3 minutes, average ± S.E.M.
# Method: Experiment 2: Study of Pungency (Eye Wiping Test)
# The pungency of the test compounds were studied referring to the method of Jancso et al. [Acta Physiol. Acad. Sci. Hung., 19, 113–131 (1961)] and the method of Szallasi et al. [Brit. J. Pharmacol., 119, 283–290 (1996)]. A test compound was dissolved in a physiological saline solution containing 10% ethanol and 10% Tween 80 into various concentrations (μg/ml), and a drop of the solution thereof was added dropwise into the eye of Jcl:SD strain male rats (5 to 25 […] per group, body weight; 220 to 280 g). Then, the number of the protective wiping movements with forefoot was counted for 3 minutes, and was considered as an index for pungency. The test results are expressed as average value±S.E.M., and the statistical significant differences between each test compound-treated group and the control group were analyzed using non-parametric Dunnett's multiple range test, and p<0.05 was considered as significant difference.
# [1] = literature report; cited from earlier work
# VR1 receptor = details: animal pain model; VR1 receptor antagonist; cited from earlier work
# [2] = orally administered at a dose of 10 mg/kg, 60 minutes before PBQ
# [3] = oral administration, writhing inhibition, logit analysis
smiles,measurement,setting,value
"COc1cc(CC(=O)Nc2cccc(-c3cccc(F)c3)c2)ccc1OCCN [Example 66, 4-(2-aminoethoxy)-N-[3-(3-fluorophenyl)phenyl]-3-methoxyphenylacetamide]",inhibition in vivo at 10 mg/kg,male Std:ddY mice; [2],100%
same,Number of wiping movements,Jcl:SD strain male rats; concentration 100 μg/ml,5.6 ± 2.4
same,Number of wiping movements,Jcl:SD strain male rats; concentration 500 μg/ml,no significant increase
same,Number of wiping movements,"Jcl:SD strain male rats; concentration 500 μg/ml, listed as Ex. 66",3.6 ± 1.6
"COc1cc(CC(=O)Nc2cccc(-c3ccc(Cl)cc3)c2)ccc1OCCN [Example 67, 4-(2-aminoethoxy)-N-[3-(4-chlorophenyl)phenyl]-3-methoxyphenylacetamide]",inhibition in vivo at 10 mg/kg,male Std:ddY mice; [2],90.2%
same,Number of wiping movements,Jcl:SD strain male rats; concentration 100 μg/ml,3.8 ± 1.3
same,Number of wiping movements,Jcl:SD strain male rats; concentration 500 μg/ml,13.4 ± 2.8
"COc1cc(CC(=O)Nc2cccc(-c3ccc4c(c3)OCO4)c2)ccc1OCCN [Example 164, 4-(2-aminoethoxy)-N-[3-(2H-benzo[d]-1,3-dioxolan-5-yl)phenyl]-3-methoxyphenylacetamide]",ED50 (mg/kg po),male Std:ddY mice; [3],1.56 mg/kg
same,Inhibitory percentage (%),"male Std:ddY mice; writhing inhibition, orally administered at a dose of 10 mg/kg, 60 minutes before PBQ",99.0%
same,Number of wiping movements,Jcl:SD strain male rats; concentration 100 μg/ml,5.4 ± 2.8
same,Number of wiping movements,Jcl:SD strain male rats; concentration 500 μg/ml,no significant increase
same,Number of wiping movements,"Jcl:SD strain male rats; concentration 500 μg/ml, listed as Ex. 164",2.8 ± 1.7
"COc1cc(CC(=O)Nc2cccc(-c3cccc(Oc4ccccc4)c3)c2)ccc1OCCN [Example 186, 4-(2-aminoethoxy)-3-methoxy-N-[3-(3-phenoxyphenyl)phenyl]-phenylacetamide]",inhibition in vivo at 10 mg/kg,male Std:ddY mice; [2],84.3%
same,ED50,male Std:ddY mice; [3],1.83 mg/kg
same,Number of wiping movements,Jcl:SD strain male rats; concentration 100 μg/ml,4.0 ± 1.1
same,Number of wiping movements,Jcl:SD strain male rats; concentration 500 μg/ml,12.2 ± 2.0
"COc1cc(CC(=O)Nc2ccc3c(c2)C(=O)C(Cc2ccccc2)CC3)ccc1OCCN (centres unmarked) [Example 225, 4-(2-aminoethoxy)-3-methoxy-N-[1-oxo-2-phenylmethyl-1,2,3,4-tetrahydronaphthalen-7-yl]phenylacetamide]",inhibition in vivo at 10 mg/kg,male Std:ddY mice; [2],73.5%
same,ED50,male Std:ddY mice; [3],4.79 mg/kg
same,Number of wiping movements,Jcl:SD strain male rats; concentration 500 μg/ml,no significant increase
same,Number of wiping movements,"Jcl:SD strain male rats; concentration 500 μg/ml, listed as Ex. 225",4.4 ± 2.1
same,Number of wiping movements,Jcl:SD strain male rats; concentration 1000 μg/ml,1.6 ± 1.2
CCCCCc1ccc(C(=O)NCc2ccc(O)c(OC)c2)cc1 [N-(4-hydroxy-3-methoxybenzyl)-4-pentylbenzamide],analgesic effect,[1],no analgesic effect
Oc1cc2c(cc1O)CN(C(=S)NCCc1ccc(Cl)cc1)CCC2 [capsazepin],analgesic effect,VR1 receptor,significant analgesic effect
